Laboratory results published in PubChem BioAssay AID248 (DTP/NCI, 2004).
Values joined by “and” are separate entries in the source; they are usually repeats but may differ in a detail not shown here. Equal values may be shown once. Toxic doses and inconclusive results are not listed. No stated cut-off is given here; in the data, active means T/C of 150% or more; inactive means T/C below 125%.

Tested on: L1210 leukemia ip in BDF1 mice, survival T/C
Assay: NCI In Vivo Anticancer Drug Screen. Data for tumor model L1210 Leukemia (intraperitoneal) in B6D2F1 (BDF1) mice
Details: endpoint: mean survival time, higher = longer survival
Outline: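 Antitumor effect is assessed in tumor-bearing animals. Survival in the compound arm is compared with a vehicle-dosed control arm and expressed as their quotient.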

[1] = dose: 100.0 mg/kg/injection, schedule: Q01DX009 (ip), vehicle: saline with Tween-80
[2] = dose: 200.0 mg/kg/injection, schedule: Q01DX009 (ip), vehicle: saline with Tween-80
[3] = dose: 100.0 mg/kg/injection, schedule: Q04DX002 (ip), vehicle: Klucel (hydroxypropylcellulose) (HPC)
[4] = dose: 200.0 mg/kg/injection, schedule: Q04DX002 (ip), vehicle: Klucel (hydroxypropylcellulose) (HPC)
[5] = dose: 400.0 mg/kg/injection, schedule: Q04DX002 (ip), vehicle: Klucel (hydroxypropylcellulose) (HPC)
[6] = dose: 100.0 mg/kg/injection, schedule: Q01DX009 (ip), vehicle: Klucel (hydroxypropylcellulose) (HPC)
[7] = dose: 200.0 mg/kg/injection, schedule: Q01DX009 (ip), vehicle: Klucel (hydroxypropylcellulose) (HPC)
[8] = dose: 400.0 mg/kg/injection, schedule: Q01DX009 (ip), vehicle: Klucel (hydroxypropylcellulose) (HPC)
[9] = dose: 100.0 mg/kg/injection, schedule: Q01DX009 (ip), vehicle: acetone
[10] = dose: 100.0 mg/kg/injection, schedule: Q04DX003 (ip), vehicle: Klucel (hydroxypropylcellulose) (HPC)
[11] = dose: 200.0 mg/kg/injection, schedule: Q04DX003 (ip), vehicle: Klucel (hydroxypropylcellulose) (HPC)
[12] = dose: 400.0 mg/kg/injection, schedule: Q04DX003 (ip), vehicle: Klucel (hydroxypropylcellulose) (HPC)
[13] = dose: 100.0 mg/kg/injection, schedule: Q01DX001 (ip), vehicle: saline
[14] = dose: 50.0 mg/kg/injection, schedule: Q01DX009 (ip), vehicle: Klucel (hydroxypropylcellulose) (HPC)
[15] = dose: 100.0 mg/kg/injection, schedule: Q04DX003 (ip), vehicle: saline
[16] = dose: 200.0 mg/kg/injection, schedule: Q04DX003 (ip), vehicle: saline
[17] = dose: 400.0 mg/kg/injection, schedule: Q04DX003 (ip), vehicle: saline

Measured: T/C

[Cu+2].[NH-]CC(=O)O.[NH-]CC(=O)O
inactive: dose: 5.0 mg/kg/injection, schedule: Q04DX003 (ip), vehicle: saline 103 % of control | dose: 10.0 mg/kg/injection, schedule: Q04DX003 (ip), vehicle: saline 99 % of control | dose: 20.0 mg/kg/injection, schedule: Q04DX003 (ip), vehicle: saline 94 % of control

OCC(O)COc1ccc(Cl)cc1Cl (stereo unspecified)
inactive: [1] 105 % of control | [2] 101 % of control

N#CCN1CCCCCC1
inactive: dose: 5.0 mg/kg/injection, schedule: Q01DX009 (ip), vehicle: Klucel (hydroxypropylcellulose) (HPC) 102 % of control | dose: 10.0 mg/kg/injection, schedule: Q01DX009 (ip), vehicle: Klucel (hydroxypropylcellulose) (HPC) 98 % of control | dose: 10.0 mg/kg/injection, schedule: Q04DX003 (ip), vehicle: Klucel (hydroxypropylcellulose) (HPC) 98 % of control | dose: 20.0 mg/kg/injection, schedule: Q04DX003 (ip), vehicle: Klucel (hydroxypropylcellulose) (HPC) 91 % of control

ClCCCN1CCN(CCCCl)CC1
inactive: dose: 6.25 mg/kg/injection, schedule: Q01DX009 (ip), vehicle: distilled water + alcohol 93 % of control | dose: 12.5 mg/kg/injection, schedule: Q01DX009 (ip), vehicle: distilled water + alcohol 95 % of control | dose: 25.0 mg/kg/injection, schedule: Q01DX009 (ip), vehicle: distilled water + alcohol 101 % of control | dose: 50.0 mg/kg/injection, schedule: Q01DX009 (ip), vehicle: distilled water + alcohol 113 % of control | dose: 100.0 mg/kg/injection, schedule: Q01DX009 (ip), vehicle: distilled water + alcohol 114 % of control

CCCCCCCc1nc(N)nc(N2CCOCC2)n1
inactive: [3] 89 % of control | [4] 100 % of control | [5] 110 % of control

ClC(Cl)(Cl)C(c1cccs1)c1cccs1
inactive: [6] 94 % of control | [3] 93 % of control | [7] 94 % of control | [4] 96 % of control | [8] 94 % of control | [5] 96 % of control

ClC12CC3CC(CC(C3)C1)C2
inactive: [9] 92 % of control | dose: 100.0 mg/kg/injection, schedule: Q04DX003 (ip), vehicle: acetone 91 % of control | dose: 200.0 mg/kg/injection, schedule: Q01DX009 (ip), vehicle: acetone 95 % of control and 91 % of control | dose: 200.0 mg/kg/injection, schedule: Q04DX003 (ip), vehicle: acetone 98 % of control | dose: 400.0 mg/kg/injection, schedule: Q01DX009 (ip), vehicle: acetone 93 % of control | dose: 400.0 mg/kg/injection, schedule: Q04DX003 (ip), vehicle: acetone 88 % of control

CC1=C(C)CC(C(=O)c2ccccc2)=C(C(=O)c2ccccc2)C1
inactive: dose: 100.0 mg/kg/injection, schedule: Q01DX001 (ip), vehicle: Klucel (hydroxypropylcellulose) (HPC) 95 % of control | dose: 200.0 mg/kg/injection, schedule: Q01DX001 (ip), vehicle: Klucel (hydroxypropylcellulose) (HPC) 90 % of control | dose: 400.0 mg/kg/injection, schedule: Q01DX001 (ip), vehicle: Klucel (hydroxypropylcellulose) (HPC) 90 % of control

CC(C)(C)C1CCC(NC(=O)c2ccccc2)CC1 (stereo unspecified)
inactive: [6] 108 % of control | [10] 102 % of control | [7] 109 % of control | [11] 98 % of control | [8] 86 % of control | [12] 100 % of control

O=C(COc1ccc(Cl)cc1)Nc1nccs1
inactive: [1] 96 % of control | [2] 89 % of control | dose: 400.0 mg/kg/injection, schedule: Q01DX009 (ip), vehicle: saline with Tween-80 92 % of control

CCOc1ncnc2c1ncn2-c1cccc(C)c1
inactive: dose: 50.0 mg/kg/injection, schedule: Q01DX001 (ip), vehicle: carboxymethylcellulose (CMC) 98 % of control | dose: 100.0 mg/kg/injection, schedule: Q01DX001 (ip), vehicle: carboxymethylcellulose (CMC) 110 % of control | dose: 200.0 mg/kg/injection, schedule: Q01DX001 (ip), vehicle: carboxymethylcellulose (CMC) 101 % of control | dose: 400.0 mg/kg/injection, schedule: Q01DX001 (ip), vehicle: carboxymethylcellulose (CMC) 98 % of control

C=CCN(C(=O)C=C)C1CCCCC1
inactive: dose: 50.0 mg/kg/injection, schedule: Q01DX001 (ip), vehicle: saline 98 % of control | [13] 101 % of control

CC(=O)Oc1ccc([N+](=O)[O-])cc1C(OC(C)=O)OC(C)=O
inactive: dose: 55.0 mg/kg/injection, schedule: Q01DX Z (ip), vehicle: methylcellulose (MC) 90 % of control | dose: 83.0 mg/kg/injection, schedule: Q01DX Z (ip), vehicle: methylcellulose (MC) 96 % of control | dose: 125.0 mg/kg/injection, schedule: Q01DX Z (ip), vehicle: methylcellulose (MC) 93 % of control

CC1(C)N=C(N)N=C(N)N1c1cccc(OCCCOc2ccc(NC(=O)/C=C\C(=O)O)cc2)c1
inactive: [13] 102 % of control | dose: 200.0 mg/kg/injection, schedule: Q01DX001 (ip), vehicle: saline 101 % of control | dose: 400.0 mg/kg/injection, schedule: Q01DX001 (ip), vehicle: saline 102 % of control

C/C=C/C1OCCO1
inactive: [9] 92 % of control

NC(=O)NC1C(c2ccccc2)=NOC1C(N)=O (stereo unspecified)
inactive: dose: 25.0 mg/kg/injection, schedule: Q04DX003 (ip), vehicle: Klucel (hydroxypropylcellulose) (HPC) 94 % of control | [14] 88 % of control | dose: 50.0 mg/kg/injection, schedule: Q04DX003 (ip), vehicle: Klucel (hydroxypropylcellulose) (HPC) 105 % of control | [6] 93 % of control | [10] 96 % of control

CCOC(=O)c1ccc(Nc2nnc(-c3c(OC)cc(OC)cc3OC)s2)cc1
inactive: dose: 100.0 mg/kg/injection, schedule: Q04DX002 (ip), vehicle: saline with Tween-80 93 % of control | dose: 200.0 mg/kg/injection, schedule: Q04DX002 (ip), vehicle: saline with Tween-80 104 % of control | dose: 400.0 mg/kg/injection, schedule: Q04DX002 (ip), vehicle: saline with Tween-80 101 % of control

ClC1c2ccccc2-c2nsnc2C1Cl (stereo unspecified)
inactive: [14] 94 % of control | [6] 87 % of control | [7] 91 % of control | [4] 92 % of control

COc1ccc(CO)cc1OC
inactive: [6] 101 % of control | [10] 97 % of control | [7] 113 % of control | [11] 94 % of control | [8] 97 % of control | [12] 94 % of control

CN1CCCC(OC(=O)N(C)C)C1 (stereo unspecified)
inactive: [15] 98 % of control | [16] 98 % of control | [17] 98 % of control

C=CCOC1C=CC=CC=C1
inactive: dose: 25.0 mg/kg/injection, schedule: Q01DX009 (ip), vehicle: Klucel (hydroxypropylcellulose) (HPC) 100 % of control | [14] 100 % of control | [10] 94 % of control

CCC(C)NC(C)=O (stereo unspecified)
inactive: [15] 115 % of control | [16] 97 % of control | [17] 110 % of control

O=C(CBr)c1cc(-c2cccc(I)c2)nc2c(Cl)cc(Cl)cc12
inactive: dose: 100.0 mg/kg/injection, schedule: Q04DX003 (ip), vehicle: saline with Tween-80 101 % of control | dose: 200.0 mg/kg/injection, schedule: Q04DX003 (ip), vehicle: saline with Tween-80 93 % of control | dose: 400.0 mg/kg/injection, schedule: Q04DX003 (ip), vehicle: saline with Tween-80 93 % of control

O=C(Nc1ccc(CCO)cc1)Nc1cc(C(F)(F)F)ccc1Cl
inactive: [6] 100 % of control | [7] 95 % of control
